Here are results for one compound from patent US20060183801A1, “Method of preventing or treating breast, prostate and/or cervical cancer with n, n-dimethylglycine” (FoodScience Corporation, priority 2002, published 2006).

Broadly, the inhibition is the share of the control response that was lost under treatment.

Assay [1] has as its system TNF alpha secretion in peripheral blood mononuclear cells. As to the kind of experiment: Cytokine bioassay: TNF-α secretion by stimulated PBMC (L-929 indicator cells). The assay is classed as cell-based. Conditions: 100 mM DMG, PBMC stimulated with PMA and Ionomycin; L-929 indicator cells (FIG. 7). As for the experimental part:
(§1) Heparinized peripheral blood from healthy control volunteers was collected and layered onto room temperature (RT) polysucrose sodium diatriazoate (Histopaque 1077, Sigma Chemical Co.) in 15-ml conical tubes. These were centrifuged at 400×g for 30 minutes. Mononuclear cells were collected and washed in 10-ml phosphate buffered saline (PBS). Following a 10 min centrifugation and 250×g, the PBS were decanted and the wash step repeated. Cells were counted in a hemocytometer and adjusted to 2×10^6 cells/ml. These cells were later used in cytokine bioassays, Co-culture and in flow cytometry. Modulation of inflammatory cytokine production in Peripheral Blood Mononuclear Cells (PBMC) by DMG, was determined by the use of cytokine bioassays. Supernatants of DMG treated and untreated PBMC which produce cytokines (producers) on stimulation with mitogens (PMA and/or lonomycin), were added to responder cell lines specific for the respective cytokine. Proliferation or inhibition of these indicator cells signal the extent of cytokine secretion by the producer cell lines. The optimum cell number/well for each cell line was determined after a titration assay. PBMC were plated on 48 well plates in a concentration of 5×10^6 cells/well. […] Samples are read at 4 hours using a BIO-RAD benchmark microplate reader at 490 nm. […]

For assay [2], the system named is IL-1 secretion in peripheral blood mononuclear cells. As to the kind of experiment: Cytokine bioassay: IL-1 secretion by stimulated PBMC (A375.S2 responder cells). The assay is classed as cell-based. Conditions: 100 mM DMG. As to the method:
as §1

Assay [3] concerns prostate adenocarcinoma cell line PC-3. As to the kind of experiment: Co-culture proliferation assay: DMG treated stimulated PBMC with PC-3 prostate cells. The assay is classed as cell-based, human. Conditions: DMG treated stimulated PBMC in co-culture (FIG. 26). As for the experimental part:
(§2) Heparinized peripheral blood from healthy control volunteers was collected and layered onto room temperature (RT) polysucrose sodium diatriazoate (Histopaque 1077, Sigma Chemical Co.) in 15-ml conical tubes. These were centrifuged at 400×g for 30 minutes. Mononuclear cells were collected and washed in 10-ml phosphate buffered saline (PBS). Following a 10 min centrifugation and 250×g, the PBS were decanted and the wash step repeated. Cells were counted in a hemocytometer and adjusted to 2×10^6 cells/ml. These cells were later used in cytokine bioassays, Co-culture and in flow cytometry.
(§3) A proliferation assay was designed to determine the ability of DMG treated cytokine producing cells to inhibit growth of human breast cancer cell lines MCF-7, BT-20 and T47D, human prostrate cancer PC-3 cell line, human cervical cancer Caski and SiHa cell lines and melanoma cell lines. Three melanoma cell lines, human A375.S2 and Hs 294T, and murine B16 as indicator cells were used to observe the modulating effects of DMG. The optimum cell number/well for each cell line was determined after a titration assay. Stimulated and unstimulated cytokine producing cell lines (Jurkat E6-1, EL-4, MG-63 and U-937) were treated with DMG for 24 hr prior to culture with melanoma cells. Similarly, PBMC were also treated with DMG and cultured with melanoma cells. […]

The subject of assay [4] is IL-6 secretion in LS 174T cell line. Nature of the assay: Cytokine bioassay: IL-6 secretion by LS 174T cells (7TD1 responder cells). Type of assay: cell-based. Conditions: 100 mM DMG, LS 174T (FIG. 6). As to the method: (§4) Cytokine bioassays utilizing cell proliferation assays were performed to assess modulation of inflammatory cytokine production by DMG (House-Development in biological Standardization 1999 (97) 13-19). Supernatants from cytokine producing cell lines (untreated control and DMG treated), were added to responder cell lines specific for that cytokine. Proliferation or inhibition of these responder/indicator cells signal the extent of cytokine secreted by the producer cell lines. The optimum cell number/well for each cell line was determined after a titration assay. All suspension producer cell lines such at THP-1, Jurkat E6-1, EL-4 and U-937 were plated on 48 well plates in a concentration of 5×10^6 cells/well, where as adherent producer cells such as LS174T were plated at a concentration of 5×10^5 cells/well. Suspension responder cell lines (CTLL-2 and 7TD-1) were used at a concentration of 1×10^6 cells/well in a 96 well plate, whereas the adherent responder cell lines (L-929 and A375.S2) were plated at a concentration of 3×10^4 cells/well and 4×10^4 cells/well respectively. THP-1 cells, which secrete Tumor Necrosis Factor-alpha (TNF-α), when stimulated with lipopolysaccharide (LPS), were treated with increasing concentrations of DMG for a period of 24 hours at 37° C. in a humidified 5% CO2 incubator. […] Samples are read at 4 hours using a BIO-RAD benchmark microplate reader at 490 nm. […]

Assay [5] relates to T47D breast cancer cell line. As to the kind of experiment: Co-culture proliferation assay: DMG treated stimulated PBMC with T47D cells. Type of assay: cell-based, human. Conditions: DMG treated stimulated PBMC in co-culture (FIG. 20). As for the experimental part:
as §2, §3

The test system of assay [6] is T47D breast cancer cell line. As to the kind of experiment: Co-culture proliferation assay: DMG treated Jurkat E6-1 with T47D breast cancer cells. Type of assay: cell-based, human. Conditions: Jurkat E6-1 treated with DMG 24 hours prior to culture (FIG. 18). As for the experimental part: (§5) A proliferation assay was designed to determine the ability of DMG treated cytokine producing cells to inhibit growth of melanoma cell lines, breast cancer cell lines, a prostate cancer cell line, and cervical cancer cell lines. The cytokine bioassays utilizing cell proliferation assays were performed to assess modulation of inflammatory cytokine production by DMG. Cytokine bioassays are well known in the art. (Thorpe R: Developments in Biological Standardization 1999, 97:61-71 and Mire-Sluis AR: Journal of Immunological Methods 1995, 187 (2):191-199)
(§6) The cell lines and murine B16 as indicator cells were used to observe the modulating effects of DMG. The optimum cell number per well for each cell line was determined after titration assay. Stimulated and unstimulated cytokine producing cell lines (Jurkat e6-1, EL-4, MG-63 and U-937) were treated with DMG for 24 hours prior to culture with cancer cell lines. […]
(§7) A proliferation assay was designed to determine the ability of DMG treated cytokine producing cells to inhibit growth of human breast cancer cell lines MCF-7, BT-20 and T47D, human prostrate cancer PC-3 cell line, human cervical cancer Caski and SiHa cell lines and melanoma cell lines. […] The optimum cell number/well for each cell line was determined after a titration assay. […]

In assay [7] the test system is IL-1 secretion in U-937 cell line. As to the kind of experiment: Cytokine bioassay: IL-1 secretion by U-937 cells (A375.S2 indicator cells). Type of assay: cell-based. Conditions: detected by decreased proliferation of A375.S2 (FIG. 3). As to the method:
as §4

Assay [8] relates to MCF-7 breast cancer cells. Nature of the assay: Co-culture proliferation assay: DMG treated Jurkat E6-1 with MCF-7 breast cancer cells. The assay is classed as cell-based, human. Conditions: Jurkat E6-1 treated with DMG 24 hours prior to culture (FIG. 17). As to the method:
as §5, §6, §7

Assay [9] concerns A375.S2 melanoma cells. Nature of the assay: Co-culture proliferation assay: DMG treated U-937 with A375.S2 melanoma cells. Type of assay: cell-based, human. Conditions: DMG treated U-937 in co-culture. As for the experimental part:
as §5, §6, §7

In assay [10] the test system is A375.S2 melanoma cells. As to the kind of experiment: Co-culture proliferation assay: DMG treated PBMC with A375.S2 melanoma cells. Type of assay: cell-based, human. As for the experimental part: as §2, §3
The subject of assay [11] is melanoma cells. As to the kind of experiment: Co-culture proliferation assay: DMG treated stimulated Jurkat E6-1 with melanoma cells. Type of assay: cell-based. Conditions: PMA/Ionomycin stimulated Jurkat E6-1 in co-culture. As to the method: as §5, §6, §7
The test system of assay [12] is TNF-α secretion in THP-1 cell line. Nature of the assay: Cytokine bioassay: TNF-α secretion by LPS-stimulated THP-1 cells (L-929 indicator cells). The assay is classed as cell-based. Conditions: 100 mM DMG, 24 h, measured by L-929 cells (FIG. 2). As for the experimental part:
as §4

The subject of assay [13] is IL-2 secretion in peripheral blood mononuclear cells. As to the kind of experiment: Cytokine bioassay: IL-2 secretion by stimulated PBMC (HT-2 responder cells). Conditions: 100 mM DMG. Type of assay: cell-based. As for the experimental part: as §1
Assay [14] deals with SiHa human cervical carcinoma cells. Nature of the assay: Co-culture proliferation assay: DMG treated Jurkat E6-1 with SiHa cervical cells. Type of assay: cell-based. Conditions: Jurkat E6-1 treated with DMG 24 hours prior to culture (FIG. 24-25). As to the method:
as §5, §6, §7

Assay [15] has as its system IL-2 secretion in EL-4 cell line. As to the kind of experiment: Cytokine bioassay: IL-2 secretion by EL-4 cells (CTLL-2 responder cells). Type of assay: cell-based, mouse. As to the method:
as §4

In assay [16] the test system is melanoma cells. Nature of the assay: Co-culture proliferation assay: DMG treated stimulated MG-63 with melanoma cells. The assay is classed as cell-based. Conditions: DMG treated stimulated MG-63 (produces IFN-β) in co-culture. As for the experimental part: as §5, §6, §7
Assay [17] deals with Hs 294T melanoma cells. As to the kind of experiment: Co-culture proliferation assay: DMG treated PBMC with Hs 294T melanoma cells. Type of assay: cell-based. Conditions: Homo sapiens; PBMC treated with 100 mM DMG, Hs 294T co-culture (FIG. 14); read-out: inhibitory effect over controls (melanoma inhibition by PBMC). As to the method: as §2, §3
In assay [18] the test system is MCF-7 breast cancer cell line. Nature of the assay: Co-culture proliferation assay: DMG treated stimulated PBMC with MCF-7 cells. The assay is classed as cell-based, human. Conditions: DMG treated stimulated PBMC in co-culture (FIG. 19). As for the experimental part: as §2, §3
Assay [19] relates to IL-2 secretion in Jurkat E6-1 cell line. As to the kind of experiment: Cytokine bioassay: IL-2 secretion by Jurkat E6-1 cells (CTLL-2 responder cells). The assay is classed as cell-based, human. As for the experimental part:
as §4

Assay [20] relates to Caski human cervical carcinoma cells. As to the kind of experiment: Co-culture proliferation assay: DMG treated Jurkat E6-1 with Caski cervical cells. The assay is classed as cell-based. Conditions: Jurkat E6-1 treated with DMG 24 hours prior to culture (FIG. 22-23). As for the experimental part:
as §5, §6, §7

With `CN(C)CC(=O)O` [DMG, N,N-dimethylglycine], the “increase of TNF-α over stimulated baseline controls” value in assay [1] is 9%. The “enhancement of IL-1 expression levels” value in assay [2] is 8%. For the same compound, the “inhibition of PC-3 cell line” value in assay [3] is “dose response inhibition”. The “increase of IL-6 production levels” value in assay [4] amounted to 7%. Further, the “inhibition of T47D cell line” value in assay [5] is “dose response inhibition”. In assay [6], the “inhibition of T47D cells” value is reported as “typical dose dependent effect”. In addition, the “increase of IL-1 secretion” value in assay [7] (10 mM DMG) stood at 4.5%; in [7] (100 mM DMG) it was 6.5%. Besides, in [8], the “inhibition of MCF-7 cells” value is “dose dependent effect”. In assay [9], the “decrease in the proliferation of A375.S2 cells” value is recorded as 30%. The “proliferation decrease in melanoma cell growth over stimulated baseline control” value in [10] (PBMC treated with 100 mM DMG, A375.S2 co-culture) was 17%. Further, the “A375.S2 proliferation, dose dependence” value in assay [10] (PBMC treated with increasing concentrations of DMG) is recorded as “Significant dose dependent reductions”. Besides, the “increased inhibition of melanoma cells over baseline stimulated control” value in assay [11] is listed as 8%. The “increase of TNF-α levels over baseline control levels” value in assay [12] was 7%. The “enhancement of IL-2 expression levels” value in [13] was found to be 10%. In addition, in assay [14], the “inhibition of SiHa cell line” value was “dose response inhibition”. Besides, the “increase of IL-2 secretion” value in assay [15] (10 mM DMG, EL-4 (FIG. 5)) is reported as 2.5%; in assay [19] (10 mM DMG, Jurkat E6-1 (FIG. 4)), 3%. For the same compound, the “increase of IL-2 levels (increase in proliferation of CTLL-2)” value in assay [15] (100 mM DMG, EL-4 supernatant (FIG. 5)) came out at 6%; in assay [19] (100 mM DMG, Jurkat E6-1 supernatant (FIG. 4)), 10%. For the same compound, in assay [16], the melanoma inhibition result is “increased level of melanoma inhibition”. Further, the inhibition at 100000 µM in [17] was determined as 13%. Besides, the “inhibition of MCF-7 cell line” value in [18] is recorded as “dose response inhibition”. In assay [20], the “inhibition of Caski cell line” value is on record as “dose response inhibition”.
